# Measured values as given in patent US12516046B2, “2-oxo-oxazolidine-5-carboxamides as NAV1.8 inhibitors” (Merck Sharp & Dohme LLC, priority 2020, dated 2026).
# Molecular target: human Nav1.8 (Homo sapiens (Human), UniProt Q9Y5Y9)
# Assay: Nav1.8 Qube® Assay (automated 384-well patch-clamp)
# Assay type: cell-based
# Conditions: human Nav1.8 channels stably expressed in HEK 293 cells
# Excerpt: Qube® Assay Experimental Procedure
# Chain of human Nav1.8 (Q9Y5Y9 whole entry): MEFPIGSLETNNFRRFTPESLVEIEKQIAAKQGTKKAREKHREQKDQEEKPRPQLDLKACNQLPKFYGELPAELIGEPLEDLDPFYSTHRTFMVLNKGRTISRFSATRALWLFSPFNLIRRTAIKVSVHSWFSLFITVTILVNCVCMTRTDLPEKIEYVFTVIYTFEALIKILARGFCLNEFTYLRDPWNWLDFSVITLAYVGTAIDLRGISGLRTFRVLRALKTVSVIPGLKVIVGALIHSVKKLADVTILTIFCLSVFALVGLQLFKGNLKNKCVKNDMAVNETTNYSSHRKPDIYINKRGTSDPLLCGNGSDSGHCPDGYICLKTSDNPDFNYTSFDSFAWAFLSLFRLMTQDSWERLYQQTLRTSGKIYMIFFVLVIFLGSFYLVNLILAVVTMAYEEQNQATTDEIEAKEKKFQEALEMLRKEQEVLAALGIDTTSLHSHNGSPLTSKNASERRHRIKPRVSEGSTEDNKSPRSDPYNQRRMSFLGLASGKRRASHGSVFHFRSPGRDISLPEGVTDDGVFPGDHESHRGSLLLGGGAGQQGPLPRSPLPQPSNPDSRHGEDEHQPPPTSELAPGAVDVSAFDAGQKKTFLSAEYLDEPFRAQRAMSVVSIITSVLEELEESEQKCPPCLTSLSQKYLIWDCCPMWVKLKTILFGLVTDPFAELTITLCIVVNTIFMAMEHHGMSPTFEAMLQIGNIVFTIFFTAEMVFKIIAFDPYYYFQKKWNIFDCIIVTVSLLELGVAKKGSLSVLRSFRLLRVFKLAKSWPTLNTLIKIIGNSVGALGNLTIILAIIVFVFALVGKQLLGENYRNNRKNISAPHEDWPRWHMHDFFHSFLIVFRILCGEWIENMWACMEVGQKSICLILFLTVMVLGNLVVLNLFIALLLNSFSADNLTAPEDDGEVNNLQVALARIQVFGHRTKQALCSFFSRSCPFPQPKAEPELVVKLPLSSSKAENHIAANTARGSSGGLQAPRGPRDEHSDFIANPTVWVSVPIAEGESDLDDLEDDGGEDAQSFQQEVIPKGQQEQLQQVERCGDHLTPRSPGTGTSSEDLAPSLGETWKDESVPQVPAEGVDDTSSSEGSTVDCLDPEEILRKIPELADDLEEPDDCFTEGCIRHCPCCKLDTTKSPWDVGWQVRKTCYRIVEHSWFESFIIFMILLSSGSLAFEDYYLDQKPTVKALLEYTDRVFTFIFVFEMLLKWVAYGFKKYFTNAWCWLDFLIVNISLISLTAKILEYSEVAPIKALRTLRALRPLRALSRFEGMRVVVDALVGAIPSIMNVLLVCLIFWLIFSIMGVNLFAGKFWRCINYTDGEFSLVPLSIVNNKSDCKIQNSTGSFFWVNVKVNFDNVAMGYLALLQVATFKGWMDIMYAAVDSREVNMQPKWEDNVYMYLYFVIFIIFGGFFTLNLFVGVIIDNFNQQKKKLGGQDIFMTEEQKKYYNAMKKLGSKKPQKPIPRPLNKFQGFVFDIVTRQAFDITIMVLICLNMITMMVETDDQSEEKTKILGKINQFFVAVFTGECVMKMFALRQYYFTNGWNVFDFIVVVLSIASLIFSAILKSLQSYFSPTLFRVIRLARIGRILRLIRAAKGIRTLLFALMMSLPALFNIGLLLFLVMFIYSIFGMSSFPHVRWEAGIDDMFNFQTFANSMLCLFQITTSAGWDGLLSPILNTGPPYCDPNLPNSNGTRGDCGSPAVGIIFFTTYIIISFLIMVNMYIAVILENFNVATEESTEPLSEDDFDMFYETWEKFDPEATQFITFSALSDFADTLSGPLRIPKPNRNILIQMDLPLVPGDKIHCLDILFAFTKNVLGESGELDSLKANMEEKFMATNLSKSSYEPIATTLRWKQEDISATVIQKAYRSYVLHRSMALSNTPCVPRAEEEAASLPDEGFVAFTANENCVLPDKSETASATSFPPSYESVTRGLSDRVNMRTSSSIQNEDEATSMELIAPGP
row,IC50 [nM],SMILES
1,314,"COc1ccc(C(NC(=O)[C@@H]2CNC(=O)O2)c2ccc(Cl)cc2)cn1 (single isomer, unassigned) [Example 22B, (S)-N-((R or S)-(4-chlorophenyl)(6-methoxypyridin-3-yl)methyl)-2-oxooxazolidine-5-carboxamide]"
2,574,"O=C1NC[C@@H](C(=O)NC(c2ccc(Cl)c(C(F)(F)F)n2)C2CCC(F)(F)CC2)O1 (single isomer, unassigned) [Example 63B, (S)-N-((R or S)-(5-chloro-6-(trifluoromethyl)pyridin-2-yl)(4,4-difluoro-cyclohexyl)methyl)-2-oxooxazolidine-5-carboxamide]"
3,323,"O=C1NC[C@@H](C(=O)NC(c2ccc(Cl)cc2)c2nc(C(F)(F)F)cs2)O1 (single isomer, unassigned) [Example 12B, (S)-N-((R or S)-(4-chlorophenyl)(4-(trifluoromethyl)thiazol-2-yl)methyl)-2-oxooxazolidine-5-carboxamide]"
4,0.9,"O=C1NC[C@@H](C(=O)NC(c2ccc(Cl)cc2)c2ccc(F)c(Cl)c2)O1 (single isomer, unassigned) [Example 19A, (S)—N—((R or S)-(3-chloro-4-fluorophenyl)(4-chlorophenyl)methyl)-2-oxooxazolidine-5-carboxamide]"
5,0.6,"Cc1cc(C(NC(=O)[C@@H]2CNC(=O)O2)c2ccc(Cl)cc2)ccc1Cl (single isomer, unassigned) [Example 46A, (S)-N-((R or S)-(4-chloro-3-methylphenyl)(4-chlorophenyl)methyl)-2-oxooxazolidine-5-carboxamide]"
6,5.1,"CC(C)(C)c1csc(C(NC(=O)[C@@H]2CNC(=O)O2)c2ccc(Cl)cc2)n1 (single isomer, unassigned) [Example 39A, (S)-N-((R or S)-(4-(tert-butyl)thiazol-2-yl)(4-chlorophenyl)methyl)-2-oxooxazolidine-5-carboxamide]"
7,23,"O=C1NC[C@@H](C(=O)NC(c2ccc(Cl)cc2)c2ccnc(C(F)(F)F)n2)O1 (single isomer, unassigned) [Example 11A, (S)-N-((R or S)-(4-chlorophenyl)(2-(trifluoromethyl)pyrimidin-4-yl)methyl)-2-oxooxazolidine-5-carboxamide]"
8,26,"O=C1NC[C@@H](C(=O)NC(c2ccc(Cl)cc2)c2ccc(C(F)(F)F)cn2)O1 (single isomer, unassigned) [Example 37B, (S)-N-((R or S)-(4-chlorophenyl)(5-(trifluoromethyl)pyridin-2-yl)methyl)-2-oxooxazolidine-5-carboxamide]"
9,356,"O=C1NC[C@@H](C(=O)NC(c2ccc(F)c(Cl)c2F)[C@@H]2CC[C@@H](C(F)(F)F)CO2)O1 (single isomer, unassigned) [Example 9C]"
10,807,"O=C1NC[C@@H](C(=O)NC(c2ccc(F)c(Cl)c2)C2CCN(CC(F)(F)F)C2)O1 (single isomer, unassigned) [Example 43B, (S)-N-((R or S)-(3-chloro-4-fluorophenyl)((R or S)-1-(2,2,2-trifluoroethyl)pyrrolidin-3-yl)methyl)-2-oxooxazolidine-5-carboxamide]"
11,87,"O=C1NC[C@@H](C(=O)NC(c2ccc(Cl)cc2)C2CCCCCC2)O1 (stereo partly drawn) [Example 45, (5S)-N-((4-chlorophenyl)(cyclo-heptyl)methyl)-2-oxooxazolidine-5-carboxamide]"
12,1.6,"O=C1NC[C@@H](C(=O)NC(c2ccc(OCC(F)(F)F)nc2)c2ccc(F)c(Cl)c2F)O1 (single isomer, unassigned) [Example 50A, (S)—N—((R or S)-(3-chloro-2,4-difluorophenyl)(6-(2,2,2-trifluoroethoxy)pyridin-3-yl)methyl)-2-oxo-oxazolidine-5-carboxamide]"
13,9.5,"O=C1NC[C@@H](C(=O)NC(c2ccc(F)c(Cl)c2F)[C@@H]2CC[C@@H](C(F)(F)F)CO2)O1 (single isomer, unassigned) [Example 9B]"
14,2.7,"O=C1NC[C@@H](C(=O)NC(c2ccc(OC(F)F)cc2)c2ccc(F)c(Cl)c2)O1 (single isomer, unassigned) [Example 48A, (S)-N-((R or S)-(3-chloro-4-fluorophenyl)(4-(difluoromethoxy)phenyl)methyl)-2-oxooxazolidine-5-carboxamide]"
15,705,"CS(=O)(=O)c1cccc(C(NC(=O)[C@@H]2CNC(=O)O2)c2ccc(Cl)cc2)c1 (stereo partly drawn) [Example 27, (5S)-N-((4-chlorophenyl)(3-(methylsulfonyl)phenyl)methyl)-2-oxooxazolidine-5-carboxamide]"
16,144,"O=C1NC[C@@H](C(=O)NC(c2ccc(Cl)cc2)c2cccs2)O1 (stereo partly drawn) [Example 24, (5S)-N-((4-chlorophenyl)(thio-phen-2-yl)methyl)-2-oxooxazolidine-5-carboxamide]"

row,IC50 [nM],SMILES
1,903,"O=C1NC[C@@H](C(=O)NC(c2ccc(Cl)cc2)C2CCC(F)(F)C2)O1 (single isomer, unassigned) [Example 57C, (S)-N-((R or S)-(4-chlorophenyl)((R or S)-3,3-difluorocyclopentyl)methyl)-2-oxooxazolidine-5-carboxamide]"
2,3.7,"O=C1NC[C@@H](C(=O)NC(c2ccc(OC(F)(F)F)c(Cl)c2)c2coc(C(F)(F)F)n2)O1 (single isomer, unassigned) [Example 51B, (S)-N-((R or S)-(3-chloro-4-(trifluoro-methoxy)phenyl)(2-(trifluoromethyl)oxazol-4-yl)methyl)-2-oxooxazolidine-5-carboxamide]"
3,5,"CC(C)c1cccc(C(NC(=O)[C@@H]2CNC(=O)O2)c2ccc(Cl)cc2)c1 (single isomer, unassigned) [Example 32A, (S)-N-((R or S)-(4-chlorophenyl)(3-isopropylphenyl)methyl)-2-oxooxazolidine-5-carboxamide]"
4,0.7,"O=C1NC[C@@H](C(=O)NC(c2ccc(F)c(Cl)c2)c2ccc(F)c(Cl)c2)O1 [Example 10, (S)-N-(bis(3-chloro-4-fluorophenyl)methyl)-2-oxooxazolidine-5-carboxamide]"
5,5720,"O=C1NC[C@@H](C(=O)NC(c2ccc(Cl)cc2)C2CCC(F)(F)C2)O1 (single isomer, unassigned) [Example 57B, (S)-N-((R or S)-(4-chlorophenyl)((R or S)-3,3-difluorocyclopentyl)methyl)-2-oxooxazolidine-5-carboxamide]"
6,2030,"CC1(C(=O)NC(c2ccc(Cl)cc2)c2ccc(Cl)cc2)CNC(=O)O1 (single isomer, unassigned) [Example 7B, (R or S)—N-(bis(4-chlorophenyl)methyl)-5-methyl-2-oxooxazolidine-5-carboxamide]"
7,22,"O=C1NC[C@@H](C(=O)NC(c2ccc(OC(F)(F)F)c(Cl)c2)c2cnn(C(F)(F)F)c2)O1 (single isomer, unassigned) [Example 53A, (S)-N-((R or S)-(3-chloro-4-(trifluoro-methoxy)phenyl)(1-(trifluoromethyl)-1H-pyrazol-4-yl)methyl)-2-oxooxazolidine-5-carboxamide]"
8,1350,"O=C1NC[C@@H](C(=O)NC(c2ccc(Cl)cc2)c2ccc(F)cn2)O1 (single isomer, unassigned) [Example 23A, (S)-N-((R or S)-(4-chlorophenyl)(5-fluoropyridin-2-yl)methyl)-2-oxooxazolidine-5-carboxamide]"
9,231,"O=C1NC[C@@H](C(=O)NC(c2ccc(F)c(Cl)c2)c2ccn(C(F)F)n2)O1 (single isomer, unassigned) [Example 60A, (S)-N-((R or S)-(3-chloro-4-fluorophenyl)(1-(difluoromethyl)-1H-pyrazol-3-yl)methyl)-2-oxooxazolidine-5-carboxamide]"
10,272,"O=C1NC[C@@H](C(=O)NC(c2ccc(Cl)cc2)C2CCN(CC(F)(F)F)CC2)O1 (single isomer, unassigned) [Example 42B, (S)-N-((R or S)-(4-chlorophenyl)(1-(2,2,2-trifluoroethyl)piperidin-4-yl)methyl)-2-oxooxazolidine-5-carboxamide]"
11,17,"O=C1NC[C@@H](C(=O)NC(c2ccc(Cl)cc2)c2ccc(Cl)cc2OC(F)(F)F)O1 (single isomer, unassigned) [Example 47B, (S)-N-((R or S)-(4-chloro-2-(trifluoromethoxy)phenyl)(4-chlorophenyl)-methyl)-2-oxooxazolidine-5-carboxamide]"
12,397,"O=C1NC[C@@H](C(=O)NC(c2ccc(Cl)cc2)c2nc(C(F)(F)F)c[nH]2)O1 (stereo partly drawn) [Example 40, (5S)-N-((4-chlorophenyl)(4-(trifluoromethyl)-1H-imidazol-2-yl)methyl)-2-oxooxazolidine-5-carboxamide]"
13,593,"O=C1NC[C@@H](C(=O)NC(c2ccc(Cl)cc2)c2c[nH]c(C(F)(F)F)n2)O1 (single isomer, unassigned) [Example 17A, (S)-N-((R or S)-(4-chlorophenyl)(2-(trifluoromethyl)-1H-imidazol-4-yl)methyl)-2-oxooxazolidine-5-carboxamide]"
14,70,"O=C1NC[C@@H](C(=O)NC(c2cccc(Cl)c2)C2CC2c2ccccc2)O1 (single isomer, unassigned) [Example 26B, (5S)-N-((R or S)-(3-chlorophenyl) ((cis or trans)-2-phenylcyclopropyl)methyl)-2-oxooxazolidine-5-carboxamide]"
15,28,"O=C1NC[C@@H](C(=O)NC(c2ccc(Cl)cc2)C23CC(C(F)(F)F)(C2)C3)O1 (single isomer, unassigned) [Example 4A, (S)-N-((R or S)-(4-chlorophenyl)(3-(trifluoromethyl)bicyclo[1.1.1]pentan-1-yl)methyl)-2-oxooxazolidine-5-carboxamide]"
16,3450,"O=C1NC[C@@H](C(=O)NC(c2ccc(Cl)cc2)C2CCC(F)(F)C2)O1 (single isomer, unassigned) [Example 57A, (S)-N-((R or S)-(4-chlorophenyl)((R or S)-3,3-difluorocyclopentyl)methyl)-2-oxooxazolidine-5-carboxamide]"

row,SMILES,IC50 [nM]
1,"CC1NC(=O)OC1C(=O)NC(c1ccc(Cl)cc1)c1ccc(Cl)cc1 (single isomer, unassigned) [Example 6A, (cis or trans)-N-(bis(4-chlorophenyl)methyl)-4-methyl-2-oxooxazolidine-5-carboxamide]",442
